Measurements published in US7473434B2, “Maca extract and cosmetic composition containing such an extract” (Laboratoires Expanscience, priority 2003, dated 2009).
“And” between values parts separate entries of the source, which are not always exact repeats. Equal values may be shown once.

System: Jurkat human lymphoid cells
Test: Lipid peroxide (LP) quantity in cells with or without UV irradiation, fluorescent probe, flow cytometry
Type: cell-based
Details: for Fluorescence intensity Mean: mean of triplicate; for % of control: relative LP quantity; for 1/fluorescence intensity: relative quantity of lipid peroxides
Source text: The purpose of the study is to evaluate the effects of the maca peptide extract on the lipid peroxidation rate (LP) in human cells (Jurkat) exposed or not to UVA+UVB radiation. LP measurement was made with a specific fluorescent probe by flow cytometry. This method has the advantage of showing great sensitivity when measuring the fluorescence of individual cells, over a large number of cells (10 000 cells analysed per sample). The cells used are Jurkat human lymphoid cells distributed in 24-well plates with 8.10^5 cells/well. The culture medium is RPMI 1640 (Invitrogen 31870-025) at […] and in the presence of 5% CO2. The test medium is MEM without phenol red and without calf serum (Polylabo 5503401). Tests are conducted with the peptide extract obtained in example 1, with twofold dilution i.e. in the form of an extract with 5% dry matter. A solution S1 containing 2% of this extract is prepared in the test medium. The control used is butyl hydroxyanisol (BHA Sigma ref. B 1253) in a […] solution in absolute ethanol. Tests are conducted with a solution S2 containing 100 μM BHA prepared in the test medium. […] Rad. Biol. Med., 1997, 22, 13-100) in a 5 μM solution in absolute ethanol. The tests are conducted using a 1 μM probe solution S3 prepared in the test medium. The human cells are pre-incubated in the culture medium, then washed in the test medium. They are subsequently incubated in the presence of the S1 solution of the peptide extract or the S2 control solution. The probe solution S3 is added to each batch for LP assay. After 45 minutes incubation, the fluorescent probe is removed by washing in the test medium. Part of the batches are then irradiated with […], another part without irradiation used as control. After 20 minutes incubation the fluorescence parameters are measured by flow cytometry. Determination of the relative quantity of lipid peroxides (LP) is based on measurement of the reduction in fluorescence of the probe integrated in the cell membranes. An increase in the fluorescence signal translates a reduction in the basal rate of membrane lipid peroxides. The studies are conducted in triplicate. The results obtained are expressed as the value of fluorescence intensity, and percentages with respect to the control are calculated using the values of fluorescence intensity.

COc1ccc(O)c(C(C)(C)C)c1 [BHA, butyl hydroxyanisol]
Fluorescence intensity Mean (with UV irradiation, BHA 100 μM, extract 2% solution): 374.67
% of control (with UV irradiation, Test +UV = 100): 50%
1/fluorescence intensity (with UV irradiation): 0.00267
Fluorescence intensity (with UV irradiation, single replicate values, BHA 100 μM, extract 2% solution): 362.40 and 368.20 and 393.42
Fluorescence intensity Mean (without UV, BHA 100 μM, 2% MC101): 753
% of control (without UV, Control -UV = 100): 67%
1/fluorescence intensity (without UV): 0.00133
Fluorescence intensity n = 10000 cells (without UV, single replicate values, BHA 100 μM, 2% MC101): 741.05 and 745.64 and 770.93
